The record followed here is US20210038688A1, “ICAM-1 MARKER AND APPLICATION THEREOF” (Shanghai Institute of Nutrition and Health, Chinese Academy …, priority 2018, published 2021).

Assay [1] deals with wild-type adipose stem cells. In words: in vitro adipogenic differentiation of adipose stem cells derived from WT mice (oil red staining, Western blot, Real time PCR). In kind it is cell-based. Here is the method:
(§1) FIG. 6E and FIG. 6F respectively show the mRNA levels of Pparg (FIG. 6E) and Fabp4 (FIG. 6F) after adipogenic differentiation of WT and ICAM-1^−/− mice-derived adipose stem cells under […] or DMSO treatment, using Real time PCR.
(§2) Cultivation of adipose stromal cells The sorted CD31^−CD45^−Sca-1^+PDGFR-α^+ adipose stromal cells as well as CD31^−CD45^−Sca-[…]-1^− and other components were cultured in DMEM low-sugar medium supplemented with 10% FBS alone or in combination. In some experiments, adherent adipose mononuclear cells were directly cultured in DMEM low-sugar medium supplemented with 10% FBS, and immune cells and vascular endothelial cells were removed during the medium exchange and passage steps to obtain simple adipose stromal cells.
(§3) For preparing differentiation medium, 0.5 mM 3-isobutyl-1-methylxanthine (IBMX), 50 μM indomethacin, 10 μg/ml insulin and 0.5 μM dexamethasone were added to 10% FBS of DMEM high glucose medium. When the adipose stromal cells grew to 100% confluence, the differentiation medium was changed and the medium was changed every two days, and it was taken about 5 days until differentiation was completed.
(§4) Rho and ROCK can negatively regulate adipogenic differentiation in a cytoskeleton-dependent or insulin signal-dependent manner, and our RNA-seq data also supports the role of Rho GTPase in adipose differentiation. In order to test whether Rho and ROCK are involved in the inhibitory effect of ICAM-1 on adipogenic differentiation of adipose stem cells, we used ROCK inhibitor Y-27632 to treat adipose stem cells respectively. […] Therefore, ICAM-1 inhibits the adipogenic differentiation of adipose stem cells through the Rho-ROCK pathway.
(§5) In order to verify whether Rho GTPase activity can reverse the excessive adipogenic differentiation caused by ICAM-1 deletion, we used the Rho agonist Rho activator II (RA2), which can constitutively activate RhoGTPase. […] It is important that the difference in the expression of adipogenic differentiation genes between wild-type and ICAM-1^−/− cells is eliminated by Rho
(In western blotting, separated proteins are transferred to a membrane and probed.)

For assay [2], the system named is ICAM-1−/− adipose stem cells. In words: in vitro adipogenic differentiation of adipose stem cells derived from ICAM-1−/− mice (oil red staining, Western blot, Real time PCR). In kind it is cell-based. Here is the method: as §1, §2, §3, §4, §5
In another assay the test system is ICAM-1−/− mice. Briefly: local RA2 injection into right inguinal fat pad of ICAM-1−/− mice with high-fat diet induced obesity. It is filed as in vivo. The note with it: RA2 locally into right inguinal fat pad, 10 weeks. Here is the method:
(§6) FIG. 6L-6N respectively show the visual observation result (FIG. 6L), adipose tissue observation result (FIG. 6M) and statistical analysis of changes in subcutaneous adipose tissue weight (6N) in the right subcutaneous adipose tissue of WT mice and ICAM-1^−/− mice that were given a high-fat diet induced obesity is injected with RA2 (every 2 days, […]).
(§7) This asymmetry is not observed in RA2-treated WT mice and PBS-treated mice (FIG. 6L).

The next assay concerns human adipose stem cells. In words: adipogenic differentiation induction of human primary adipose stromal cells (ICAM-1 siRNA knockdown, RA2). It is filed as cell-based. The settings on record: RA2 treatment during differentiation; FIG. 7H-J. Here is the method: FIGS. 7F-7G respectively show the adipogenic differentiation-related gene expression and Rho GTP activity of adipose stem cells during adipogenic differentiation with the expression of ICAM-1 interfered.
FIGS. 7H-7J respectively show the expressions of adipogenic differentiation-related genes (PPARG, CEBPA, FABP4) in adipose stem cells observed with RA2 activated Rho after interfering with ICAM-1 expression.
as §3
First, the expression content of ICAM-1 in human adipose tissue was analyzed. Currently, there is no recognized characteristic molecule of human preadipocytes. […] These ICAM-1^+ cells, like adipose tissue in mice, are mainly located around blood vessels (FIG. 7B). To test the regulatory effect of ICAM-1 on human adipose stem cells, we isolated human primary adipose stromal cells for adipogenic differentiation induction. […]

The subject of the next assay is WT mice. In words: local RA2 injection into right inguinal fat pad of WT mice with high-fat diet induced obesity. In kind it is in vivo. The settings on record: RA2 locally into right inguinal fat pad, 10 weeks. How it is done: as §6, §7

On to Rho activator II [RA2], for which the “adipogenic differentiation ability (oil red staining)” value in assay [1] (RA2 added during in vitro differentiation, wild-type cells, FIG. 6G) is recorded as “not obvious”; in assay [2] (RA2 added during in vitro differentiation, ICAM-1−/− cells, FIG. 6G), “significantly inhibited”. In addition, the “adipogenic differentiation genes Pparg, Cebpa, Fabp4, Plin1 (mRNA, Real time PCR)” value was “only Pparg and Fabp4 are significantly changed” in assay [1] (Rho GTPase activation by RA2, wild-type cells, FIG. 6H-K); “extensive reduction” in assay [2] (Rho GTPase activation by RA2, ICAM-1−/− precursor cells, FIG. 6H-K). In assay [2] (Rho GTPase activation by RA2, FIG. 6H-K), the “difference in the expression of adipogenic differentiation genes between wild-type and ICAM-1−/− cells” value was “eliminated”. The “excessive adipogenic differentiation (inguinal fat pads, injected right vs left side)” value with ICAM-1−/− mice (FIG. 6L) was “weakened”. Moreover, the “fat weight (subcutaneous adipose tissue)” value in the assay with ICAM-1−/− mice (every 2 days, FIG. 6M-N) is “significantly reduce”; in the assay on WT mice (every 2 days, FIG. 6M-N), “not”. For the same compound, the “enhancement of adipogenic differentiation of ICAM-1 knock-down cells (PPARG, CEBPA, FABP4 expression)” value in the assay with human adipose stem cells was “eliminated”. Moreover, the “asymmetry of inguinal fat pads on both sides” value with WT mice (FIG. 6L) was “not observed”.
For the compound `C[C@@H](N)[C@H]1CC[C@H](C(=O)Nc2ccncc2)CC1` [Y-27632], the “adipogenic differentiation (oil red staining)” value is on record as “significantly accelerate” in assay [1] (10 μM Y-27632 compared with DMSO-treated group, wild-type cells, FIG. 6C) and “no obvious effect” in assay [2] (10 μM Y-27632 compared with DMSO-treated group, ICAM-1−/− cells, FIG. 6C). For the same compound, the “expression level of Perilipin A protein (Western blot)” value in assay [1] (Y-27632 vs DMSO, wild-type cells after adipogenic differentiation) was “significantly increase”; in assay [2] (Y-27632 vs DMSO, ICAM-1−/− cells after adipogenic differentiation), “little effect”. The “expression of adipogenic differentiation-related proteins and genes (Perilipin A, Pparg, Fabp4)” value in assay [1] (inhibiting ROCK (Y-27632 vs DMSO), wild-type cells, FIG. 6D-F) is “significantly increase”; in assay [2] (inhibiting ROCK (Y-27632 vs DMSO), ICAM-1−/− cells, FIG. 6D-F), “not obvious”.
